Measured values: patent publication US20110312941A1, “1,4-DISUBSTITUTED PIPERIDINES AS VASOPRESSIN RECEPTOR VIA ANTAGONISTS” (VANTIA LIMITED, priority 2009, published 2011)

test system: dysmenorrhoea; assay: not given; details: clinical study, compared to patients taking placebo; cited from earlier work

Row | Compound | amount of additional pain-killer taken | pain
1 | COc1ccc(S(=O)(=O)N2c3ccc(Cl)cc3[C@](O)(c3ccccc3Cl)[C@@H]2C(=O)N2CCC[C@H]2C(N)=O)cc1OC [SR49059] | dose-related decrease in the amount of additional pain-killer taken | dose-related decrease in pain

target: T1, cloned human V1a receptor (Homo sapiens, UniProt P37288); assay: in vitro functional calcium mobilisation assay (FLIPR), antagonist activity, 1321N1 cells, 250 pM AVP; format: cell-based; details: functional pKi derived from pIC50 (Equation 1), FLIPR Ca2+ mobilisation, 1321N1 cells expressing cloned human V1a receptor
T1 construct: host or cells: human brain astrocytoma 1321N1 cells
T1 sequence (P37288 whole entry): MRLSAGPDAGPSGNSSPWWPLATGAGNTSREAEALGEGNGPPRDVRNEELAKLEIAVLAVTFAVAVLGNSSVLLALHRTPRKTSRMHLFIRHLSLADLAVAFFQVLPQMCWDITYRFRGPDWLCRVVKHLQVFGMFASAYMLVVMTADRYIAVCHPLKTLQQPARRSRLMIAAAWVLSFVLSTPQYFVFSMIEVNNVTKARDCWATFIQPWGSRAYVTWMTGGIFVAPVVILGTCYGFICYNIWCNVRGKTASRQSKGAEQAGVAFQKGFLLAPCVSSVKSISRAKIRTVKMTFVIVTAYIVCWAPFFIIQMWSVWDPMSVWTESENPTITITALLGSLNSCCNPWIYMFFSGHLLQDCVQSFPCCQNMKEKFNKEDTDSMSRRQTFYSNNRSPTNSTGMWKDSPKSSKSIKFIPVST
Method: The primary assay which may be used to determine the ability of the compounds of formula (1) to inhibit the vasopressin V1a receptor is an in vitro functional calcium mobilisation assay (FLIPR) that measures antagonist activity at a cloned human V1a receptor. The assay is described below.
The antagonist activity of compounds of formula (1) were determined in a Calcium (Ca2+) mobilisation assay using whole cells (human brain astrocytoma 1321N1 cells, ex Perkin Elmer) genetically modified to stably express a cloned human V1a receptor. Dose response curves were determined by displacement of a single concentration of agonist (250 pM AVP, ex Sigma) with increasing concentrations of compound. A pIC50 value is determined by non-linear regression to a 4-parameter logistic equation and a functional pKi (fpKi) derived using Equation 1.
where A=agonist single conc, and A50=the agonist EC50.

Row | Compound | Mean fpKi (Human V1a)
2 | (5H,11H-Benzo[e]pyrrolo[1,2-a][1,4]diazepin-10-yl)-[1-(2-nitro-phenyl)-piperidin-4-yl]-methanone [Example 172] | 7.35

same assay, conditions: functional pKi derived from pIC50 (Equation 1), FLIPR Ca2+ mobilisation, 1321N1 cells expressing cloned human V1a receptor, read-out: Mean fpKi (Human V1a) (converted)

Row | Compound | Ki
3 | Cn1ncc2c1Nc1cc(Cl)ccc1N(C(=O)C1CCN(c3ccccn3)CC1)C2 [Example 115] | 6.92 nM
4 | Cc1cccnc1N1CCC(C(=O)N2Cc3cnn(C)c3Nc3cc(Cl)ccc32)CC1 [Example 116] | 2.69 nM
5 | Cc1ccnc(N2CCC(C(=O)N3Cc4cnn(C)c4Nc4cc(Cl)ccc43)CC2)c1 [Example 117] | 2 nM
6 | Cc1ccc(N2CCC(C(=O)N3Cc4cnn(C)c4Nc4cc(Cl)ccc43)CC2)nc1 [Example 118] | 1.74 nM
7 | COc1cccnc1N1CCC(C(=O)N2Cc3cnn(C)c3Nc3cc(Cl)ccc32)CC1 [Example 119] | 19.1 nM
8 | CCn1ncc2c1Nc1cc(Cl)ccc1N(C(=O)C1CCN(c3ncccc3C)CC1)C2 [Example 120] | 0.912 nM
9 | CCn1ncc2c1Nc1cc(Cl)ccc1N(C(=O)C1CCN(c3cc(C)ccn3)CC1)C2 [Example 121] | 0.427 nM
10 | CCn1ncc2c1Nc1cc(Cl)ccc1N(C(=O)C1CCN(c3ccc(C)cn3)CC1)C2 [Example 122] | 0.603 nM
11 | Cc1ccc(N2CCC(C(=O)N3Cc4cnn(-c5ccccc5)c4Nc4cc(Cl)ccc43)CC2)nc1 [Example 123] | 2 nM
12 | Cc1ccc2c(c1)Nc1c(cnn1C)CN2C(=O)C1CCN(c2cccc(C)n2)CC1 [Example 124] | 9.55 nM
13 | Cc1cccc(N2CCC(C(=O)N3Cc4cnn(C)c4Nc4cc(Cl)ccc43)CC2)n1 [Example 125] | 5.89 nM
14 | CCn1ncc2c1Nc1cc(Cl)ccc1N(C(=O)C1CCN(c3cccc(C)n3)CC1)C2 [Example 126] | 1.2 nM
15 | Cc1ccc2c(c1)Nc1c(cnn1C)CN2C(=O)C1CCN(c2ccccc2F)CC1 [Example 127] | 2 nM
16 | Cc1cccc(N2CCC(C(=O)N3Cc4cnn(C)c4Nc4cc(C)ccc43)CC2)c1 [Example 128] | 1.32 nM
17 | Cc1ccc(N2CCC(C(=O)N3Cc4cnn(C)c4Nc4cc(C)ccc43)CC2)cc1 [Example 129] | 0.324 nM
18 | COc1ccc(N2CCC(C(=O)N3Cc4cnn(C)c4Nc4cc(C)ccc43)CC2)cc1 [Example 131] | 3.09 nM
19 | CCc1ccc(N2CCC(C(=O)N3Cc4cnn(C)c4Nc4cc(C)ccc43)CC2)cc1 [Example 132] | 0.741 nM
20 | Cc1ccc2c(c1)Nc1c(cnn1C)CN2C(=O)C1CCN(c2ccc(C(F)(F)F)cc2)CC1 [Example 133] | 5.37 nM
21 | Cn1ncc2c1Nc1cc(Cl)ccc1N(C(=O)C1CCN(c3ccccc3F)CC1)C2 [Example 134] | 1.74 nM
22 | Cc1cccc(N2CCC(C(=O)N3Cc4cnn(C)c4Nc4cc(Cl)ccc43)CC2)c1 [Example 135] | 1.29 nM
23 | Cc1ccc(N2CCC(C(=O)N3Cc4cnn(C)c4Nc4cc(Cl)ccc43)CC2)cc1 [Example 136] | 0.617 nM

Row | Compound | Ki
24 | COc1cccc(N2CCC(C(=O)N3Cc4cnn(C)c4Nc4cc(Cl)ccc43)CC2)c1 [Example 137] | 1.78 nM
25 | COc1ccc(N2CCC(C(=O)N3Cc4cnn(C)c4Nc4cc(Cl)ccc43)CC2)cc1 [Example 138] | 2.63 nM
26 | CCc1ccc(N2CCC(C(=O)N3Cc4cnn(C)c4Nc4cc(Cl)ccc43)CC2)cc1 [Example 139] | 0.912 nM
27 | Cn1ncc2c1Nc1cc(Cl)ccc1N(C(=O)C1CCN(c3ccc(C(F)(F)F)cc3)CC1)C2 [Example 140] | 8.51 nM
28 | Cc1ccc2c(c1)Nc1c(cnn1C)CN2C(=O)C1CCN(c2ccc(C)nc2)CC1 [Example 141] | 5.13 nM
29 | Cc1ccc(N2CCC(C(=O)N3Cc4cnn(C)c4Nc4cc(Cl)ccc43)CC2)cn1 [Example 142] | 2.88 nM
30 | O=C(C1CCN(c2ncccn2)CC1)N1Cc2cccn2Cc2ccccc21 [Example 143] | 117 nM
31 | O=C(C1CCN(c2ccccn2)CC1)N1Cc2cccn2Cc2ccccc21 [Example 144] | 3.16 nM
32 | Cc1ccc(N2CCC(C(=O)N3Cc4cccn4Cc4ccccc43)CC2)nc1 [Example 145] | 15.1 nM
33 | O=C(C1CCN(c2cccnc2)CC1)N1Cc2cccn2Cc2ccccc21 [Example 146] | 31.6 nM
34 | O=C(C1CCN(c2ccncc2)CC1)N1Cc2cccn2Cc2ccccc21 [Example 147] | 1480 nM
35 | O=C(C1CCN(c2cnccn2)CC1)N1Cc2cccn2Cc2ccccc21 [Example 148] | 28.2 nM
36 | O=C(C1CCN(c2ccccc2)CC1)N1Cc2cccn2Cc2ccccc21 [Example 149] | 0.589 nM
37 | O=C(C1CCN(c2ccccn2)CC1)N1Cc2cccn2Cc2cc(F)ccc21 [Example 150] | 1.91 nM
38 | O=C(C1CCN(c2ccccc2)CC1)N1Cc2cccn2Cc2cc(F)ccc21 [Example 151] | 0.794 nM
39 | Cc1ccc2c(c1)Cn1cccc1CN2C(=O)C1CCN(c2ccccn2)CC1 [Example 152] | 0.631 nM
40 | Cc1ccc2c(c1)Cn1cccc1CN2C(=O)C1CCN(c2ccccc2)CC1 [Example 153] | 0.234 nM
41 | O=C(C1CCN(c2ccccc2F)CC1)N1Cc2cccn2Cc2ccccc21 [Example 154] | 1.48 nM
42 | O=C(C1CCN(c2cccc(F)c2)CC1)N1Cc2cccn2Cc2ccccc21 [Example 155] | 4.57 nM
43 | O=C(C1CCN(c2ccc(F)cc2)CC1)N1Cc2cccn2Cc2ccccc21 [Example 156] | 1.45 nM
44 | O=C(C1CCN(c2ccccc2Cl)CC1)N1Cc2cccn2Cc2ccccc21 [Example 157] | 7.59 nM

Row | Compound | Ki
45 | O=C(C1CCN(c2ccc(Cl)cc2)CC1)N1Cc2cccn2Cc2ccccc21 [Example 158] | 4.79 nM
46 | Cc1ccccc1N1CCC(C(=O)N2Cc3cccn3Cc3ccccc32)CC1 [Example 159] | 10.5 nM
47 | Cc1cccc(N2CCC(C(=O)N3Cc4cccn4Cc4ccccc43)CC2)c1 [Example 160] | 3.16 nM
48 | Cc1ccc(N2CCC(C(=O)N3Cc4cccn4Cc4ccccc43)CC2)cc1 [Example 161] | 1.12 nM
49 | COc1ccccc1N1CCC(C(=O)N2Cc3cccn3Cc3ccccc32)CC1 [Example 162] | 3.16 nM
50 | COc1cccc(N2CCC(C(=O)N3Cc4cccn4Cc4ccccc43)CC2)c1 [Example 163] | 5.62 nM
51 | COc1ccc(N2CCC(C(=O)N3Cc4cccn4Cc4ccccc43)CC2)cc1 [Example 164] | 14.1 nM
52 | CCc1ccc(N2CCC(C(=O)N3Cc4cccn4Cc4ccccc43)CC2)cc1 [Example 165] | 1.55 nM
53 | CCCc1ccc(N2CCC(C(=O)N3Cc4cccn4Cc4ccccc43)CC2)cc1 [Example 166] | 3.89 nM
54 | CC(C)c1ccc(N2CCC(C(=O)N3Cc4cccn4Cc4ccccc43)CC2)cc1 [Example 167] | 3.63 nM
55 | O=C(C1CCN(c2cccc(-c3ccccc3)c2)CC1)N1Cc2cccn2Cc2ccccc21 [Example 168] | 151 nM
56 | O=C(C1CCN(c2ccc(C(F)(F)F)cc2)CC1)N1Cc2cccn2Cc2ccccc21 [Example 169] | 30.9 nM
57 | N#Cc1cccc(N2CCC(C(=O)N3Cc4cccn4Cc4ccccc43)CC2)c1 [Example 170] | 25.7 nM
58 | N#Cc1ccc(N2CCC(C(=O)N3Cc4cccn4Cc4ccccc43)CC2)cc1 [Example 171] | 214 nM
59 | O=C(C1CCN(c2cccc([N+](=O)[O-])c2)CC1)N1Cc2cccn2Cc2ccccc21 [Example 173] | 17 nM
60 | O=C(C1CCN(c2ccc([N+](=O)[O-])cc2)CC1)N1Cc2cccn2Cc2ccccc21 [Example 174] | 162 nM
61 | Nc1ccccc1N1CCC(C(=O)N2Cc3cccn3Cc3ccccc32)CC1 [Example 175, [1-(2-Amino-phenyl)-piperidin-4-yl]-(5H,11H-benzo[e]pyrrolo[1,2-a][1,4]diazepin-10-yl)-methanone] | 3.98 nM
62 | Nc1ccc(N2CCC(C(=O)N3Cc4cccn4Cc4ccccc43)CC2)cc1 [Example 176] | 2.51 nM
63 | NCc1ccccc1N1CCC(C(=O)N2Cc3cccn3Cc3ccccc32)CC1 [Example 177, [1-(2-Aminomethyl-phenyl)-piperidin-4-yl]-(5H,11H-benzo[e]pyrrolo[1,2-a][1,4]diazepin-10-yl)-methanone] | 28.8 nM
64 | NCc1ccc(N2CCC(C(=O)N3Cc4cccn4Cc4ccccc43)CC2)cc1 [Example 178] | 97.7 nM
